Reference: patent US12419890B2, “Administration of sumo-activating enzyme inhibitor and checkpoint inhibitors” (Takeda Pharmaceutical Company Limited, priority 2019, dated 2025)

Experiments:
[1] = system: WEHI-3 syngeneic mouse myelomonocytic leukemia-derived subcutaneous tumor; experiment: WEHI-3 Study 5: mouse WEHI-3 syngeneic tumor model, individual tumor volume; assay type: in vivo; details: Compound I-263a 7.5 mg/kg IV BIW till Day 14
Protocol: WEHI-3 Study 5: WEHI-3 is a mouse myelomonocytic leukemia cell line. WEHI-3 mouse syngeneic tumor model was generated by subcutaneous inoculation with 0.1×10^6 WEHI-3 cells (cell suspension) in 9 weeks old female BALB/c mice (SINO-British SIPPR/BK Lab Animal Ltd. Shanghai, China) in the flank. When the mean tumor volume reached approximately 30 mm^3, the animals were randomized into one vehicle control and five treatment groups (n=8/group). Mice were then dosed with 20% HPbCD or Compound I-263a or anti-mouse PD-1 antibody or anti-mouse CTLA-4 antibody over a 21-day period. Tumor growth and body weight were measured twice per week during the treatment and post-treatment periods, and mice were humanely euthanized once they had reached their humane endpoint.
Study 5: A 0.75 mg/mL stock solution of Compound I-263a was formulated weekly in 20% HPβCD and administered intravenously (IV) based on exact animal body weight on each day of treatment, using a dosing volume of 10 mL/kg body weight. Final doses received were 7.5 mg/kg. Dosing volume for Compound I-263a was 0.2 mL. Anti-mouse PD1 antibody (anti-mPD-1) (Bio X Cell, 10 Technology Drive, Suite 2B, West Lebanon, NH 03784) was formulated prior to each injection at 2.0 mg/mL in Phosphate-buffered saline (PBS) and administered intraperitoneally (IP) based on exact body weight on each day of treatment, using a dosing volume of 5 mL/kg resulting in a 10 mg/kg dose. Dosing volume for anti-mPD-1 was 0.1 mL. Anti-mouse CTLA-4 antibody (anti-mCTLA-4) (Bio X Cell, 10 Technology Drive, Suite 2B, West Lebanon, NH 03784) was formulated prior to each injection at 2.0 mg/mL in Phosphate-buffered saline (PBS) and administered intraperitoneally (IP) based on exact body weight on each day of treatment, using a dosing volume of 5 mL/kg resulting in a 10 mg/kg dose. […]
(§1) Tumors were measured twice weekly using vernier calipers. Tumor volumes were calculated using standard equation: V=W^2×L/2, where V=volume, W=width, and L=length for the tumor. […] Tumor size and body weight were measured twice a week for the duration of the study. […]

[2] = system: CT26 syngeneic mouse colon fibroblast carcinoma-derived subcutaneous tumor; experiment: CT26 Study 1: mouse CT26 syngeneic tumor model, individual tumor volume; assay type: in vivo; details: Compound I-263a 7.5 mg/kg IV Day 1, 4; anti-mPD-1 10 mg/kg IP Day 1, 4, 8, 11; 8 mice/group
Protocol: CT26 Study 1: CT26 is a mouse colon fibroblast carcinoma cell line. CT26 mouse syngeneic tumor model was generated by subcutaneous inoculation with 0.2×10^6 CT-26 cells (cell suspension) in 12 weeks old female BALB/c mice (Jackson Laboratory, 600 Main St, Bar Harbor, ME) in the flank. When the mean tumor volume reached approximately 60 mm^3, the animals were randomized into one vehicle control and three treatment groups (n=8/group). Mice were then dosed with 20% HPbCD or Compound I-263a or anti-mouse PD-1 antibody over a 14-day period. Tumor growth and body weight were measured twice per week during the treatment and post-treatment periods, and mice were humanely euthanized once they had reached their humane endpoint.
Study 1: A 0.825 mg/mL stock solution of Compound I-263a was formulated weekly in 20% HPβCD and administered intravenously (IV) based on exact animal body weight on each day of treatment, using a dosing volume of 10 mL/kg body weight. Final doses received were 7.5 mg/kg. Dosing volume for Compound I-263a was 0.2 mL. […]
as §1

Cc1sc(C(=O)c2cncnc2N[C@@H]2C[C@H](COS(N)(=O)=O)[C@@H](O)C2)cc1[C@@H]1NCCc2ccc(Cl)cc21 [Compound I-263a, [(1R,2S,4R)-4-{[5-({4-[(1R)-7-chloro-1,2,3,4-tetrahydroisoquinolin-1-yl]-5-methyl-2-thienyl}carbonyl)pyrimidin-4-yl]amino}-2-hydroxycyclopentyl]methyl sulfamate]
tumor growth inhibition / antitumor activity relative to vehicle ([1]; anti-mPD-1 10 mg/kg IP BIW till Day 10, anti-mCTLA-4 10 mg/kg IP Q4D till Day 8, 8 tumors/group): modest inhibition
tumor growth delays ([1]; delay to 11-14 days): one
tumors with slight tumor growth delay ([1]; delays to 7-11 days, of the 8 implanted tumors): 6
tumor growth inhibition relative to vehicle-treated tumors [2]: did not show any tumor growth inhibition
